# Assay results from patent US20240317744A1, “Bicyclic Ureas As Kinase Inhibitors” (Incyte Corporation, priority 2023, published 2024).
# Experiments:
# [1] = biological target: catalytic domain (JH1, amino acids 808-1132) of human JAK2 (Homo sapiens, UniProt O60674); assay: JAK2 HTRF Enzyme Activity Assay; format: biochemical; conditions: ATP 30 µM, 60 minutes at 25° C.; read-out: V617F ENZ 30 UM
# [2] = biological target: T1, pseudo-kinase domain (JH2, amino-acids 536-812) of human V617F mutant JAK2 (Homo sapiens, UniProt O60674, F794H/V617F/W659A/W777A); assay: JAK2 LanthaScreen JH2-V617F Binding Assay; conditions: JAK2 JH2-V617F 0.26 nM, 50 nM tracer, 1 hour at 25° C.; read-out: JH2 BIND V617F
# T1 construct: pseudo-kinase domain (JH2, amino-acids 536-812 with 3 surface mutations W659A, W777A, F794H); His (C); purchased BPS Bioscience 79498; host or cells: baculovirus expression system
# T1 sequence (O60674 536-812 V617F/W659A/W777A/F794H): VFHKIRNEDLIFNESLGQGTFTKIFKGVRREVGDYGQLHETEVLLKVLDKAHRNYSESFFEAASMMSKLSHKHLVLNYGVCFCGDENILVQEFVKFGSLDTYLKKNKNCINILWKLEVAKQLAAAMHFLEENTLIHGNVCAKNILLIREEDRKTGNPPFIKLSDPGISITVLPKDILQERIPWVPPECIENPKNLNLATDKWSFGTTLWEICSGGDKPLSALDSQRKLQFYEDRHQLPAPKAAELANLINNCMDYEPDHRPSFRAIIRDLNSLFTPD
# Protocol: Example C. JAK2 LanthaScreen JH2-V617F Binding Assay
# JAK2 JH2-V617F binding assay utilizes pseudo-kinase domain (JH2, amino-acids 536-812 with 3 surface mutations W659A, W777A, F794H) of human V617F mutant JAK2 expressed as C-terminal His-Avi-tagged, biotinylated protein in a baculovirus expression system (BPS Bioscience, Catalog #79498). The assay was conducted in black 384-well polystyrene plates in a final reaction volume of 20 μL. JAK2 JH2-V617F (0.26 nM) was incubated with compounds (100 nL serially diluted in DMSO) in the presence of 50 nM Fluorescent JAK2-JH2 Tracer (MedChem Express Catalog #HY-102055) and 0.25 nM Streptavidin-Tb cryptate (Cisbio Part #610SATLB) in assay buffer (50 mM Tris, pH=7.5, 10 mM MgCl2, 0.01% Brij-35, 0.1% BSA, 1 mM EGTA, 5% Glycerol and 5 mM DTT). Non-specific binding was accessed in the presence of 2 mM ATP. After incubation for 1 hour at 25° C., LanthaScreen signals were read on a PHERAstar FS plate reader (BMG LABTECH). Data was analyzed with IDBS XLfit and GraphPad Prism 5.0 software using a four parameter dose response curve to determine IC50 for each compound.
# Chain of catalytic domain (JH1, amino acids 808-1132) of human JAK2 (O60674 808-1132 limits assumed): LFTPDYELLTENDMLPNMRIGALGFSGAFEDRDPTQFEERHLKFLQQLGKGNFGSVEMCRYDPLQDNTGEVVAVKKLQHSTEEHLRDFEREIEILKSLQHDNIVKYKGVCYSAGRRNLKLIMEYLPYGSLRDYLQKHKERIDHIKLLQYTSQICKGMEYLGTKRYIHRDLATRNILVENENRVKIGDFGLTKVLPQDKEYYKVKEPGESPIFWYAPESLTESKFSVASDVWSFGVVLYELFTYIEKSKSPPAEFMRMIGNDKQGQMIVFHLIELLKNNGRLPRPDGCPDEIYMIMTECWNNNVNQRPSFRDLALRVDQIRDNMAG
Structure (SMILES),IC50 [1],IC50 [2]
"[2H]C1(NC(=O)OC)CC[C@@H](n2c(=O)n(C([2H])([2H])[2H])c3cnc(Nc4ccc5c(n4)c(-c4cnn(C(F)(F)F)c4)cn5C4CCOCC4)cc32)C1 (stereo partly drawn) [Example 111, Methyl ((3R)-3-(3-(methyl-d3)-2-oxo-6-((1-(tetrahydro-2H-pyran-4-yl)-3-(1-(trifluoromethyl)-1H-pyrazol-4-yl)-1H-pyrrolo[3,2-b]pyridin-5-yl)amino)-2,3-dihydro-1H-imidazo[4,5-c]pyridin-1-yl)cyclopentyl-1-d)carbamate]",> 1000 nM,≤ 10 nM
"[2H]C([2H])([2H])n1c(=O)n([C@@H]2CC[C@@]([2H])(NC(=O)OC)C2)c2cc(Nc3cc(-c4cnccc4C(F)(F)F)cc(-c4ncc(C(C)(C)O)s4)n3)ncc21 [Example 164, Methyl ((1R,3R)-3-(6-((6′-(5-(2-hydroxypropan-2-yl)thiazol-2-yl)-4-(trifluoromethyl)-[3,4′-bipyridin]-2′-yl)amino)-3-(methyl-d3)-2-oxo-2,3-dihydro-1H-imidazo[4,5-c]pyridin-1-yl)cyclopentyl-1-d)carbamate]",> 1000 nM,≤ 10 nM
"[2H]C([2H])([2H])n1c(=O)n(C23CCC(C(N)=O)(CC2)CC3)c2cc(Nc3cc(C(C)(C)O)cc(-c4ncc(C(F)(F)F)s4)n3)ncc21 [Example 139, 4-(6-((4-(2-Hydroxypropan-2-yl)-6-(5-(trifluoromethyl)thiazol-2-yl)pyridin-2-yl)amino)-3-(methyl-d3)-2-oxo-2,3-dihydro-1H-imidazo[4,5-c]pyridin-1-yl)bicyclo[2.2.2]octane-1-carboxamide]",> 1000 nM,≤ 10 nM
"[2H]C([2H])([2H])n1c(=O)n([C@@H]2CC[C@]([2H])(NC(=O)OC)C2)c2cc(Nc3cc(-c4cnccc4C(F)(F)F)cc(-c4ncc(C(C)(C)O)s4)n3)ncc21 [Example 165, Methyl ((1S,3R)-3-(6-((6′-(5-(2-hydroxypropan-2-yl)thiazol-2-yl)-4-(trifluoromethyl)-[3,4′-bipyridin]-2′-yl)amino)-3-(methyl-d3)-2-oxo-2,3-dihydro-1H-imidazo[4,5-c]pyridin-1-yl)cyclopentyl-1-d)carbamate]",> 1000 nM,≤ 10 nM
"[2H]C([2H])([2H])n1c(=O)n([C@@H]2CC[C@@]([2H])(NC(=O)OC)C2)c2cc(Nc3cc(C)cc(-c4ncc(C(C)(C)O)s4)n3)ncc21 [Example 148, Methyl ((1R,3R)-3-(6-((6-(5-(2-hydroxypropan-2-yl)thiazol-2-yl)-4-methylpyridin-2-yl)amino)-3-(methyl-d3)-2-oxo-2,3-dihydro-1H-imidazo[4,5-c]pyridin-1-yl)cyclopentyl-1-d)carbamate]",> 1000 nM,≤ 10 nM
"[2H]C([2H])([2H])n1c(=O)n([C@@H]2CC[C@]([2H])(NC(=O)OC)C2)c2cc(Nc3cc(C4CCOCC4)cc(-c4ncc(C(C)(C)O)s4)n3)ncc21 [Example 163, Methyl ((1S,3R)-3-(6-((6-(5-(2-hydroxypropan-2-yl)thiazol-2-yl)-4-(tetrahydro-2H-pyran-4-yl)pyridin-2-yl)amino)-3-(methyl-d3)-2-oxo-2,3-dihydro-1H-imidazo[4,5-c]pyridin-1-yl)cyclopentyl-1-d)carbamate]",500 to 1000 nM,≤ 10 nM
"[2H]C([2H])([2H])NC(=O)C12CCC(n3c(=O)n(C([2H])([2H])[2H])c4cnc(Nc5cc(C(C)(C)O)cc(-c6ncc(C(F)(F)F)s6)n5)cc43)(CC1)CC2 [Example 137, 4-(6-((4-(2-Hydroxypropan-2-yl)-6-(5-(trifluoromethyl)thiazol-2-yl)pyridin-2-yl)amino)-3-(methyl-d3)-2-oxo-2,3-dihydro-1H-imidazo[4,5-c]pyridin-1-yl)-N-(methyl-d3)bicyclo[2.2.2]octane-1-carboxamide]",> 1000 nM,≤ 10 nM
"[2H]C([2H])([2H])c1cc(Nc2cc3c(cn2)n(C([2H])([2H])[2H])c(=O)n3[C@@H]2CC[C@@]([2H])(NC(=O)OC)C2)nc(-c2ncc(C(C)(C)O)s2)c1 [Example 150, Methyl ((1R,3R)-3-(6-((6-(5-(2-hydroxypropan-2-yl)thiazol-2-yl)-4-(methyl-d3)pyridin-2-yl)amino)-3-(methyl-d3)-2-oxo-2,3-dihydro-1H-imidazo[4,5-c]pyridin-1-yl)cyclopentyl-1-d)carbamate]",> 1000 nM,≤ 10 nM
"[2H]C1(NC(=O)OC)CC[C@@H](n2c(=O)n(C([2H])([2H])[2H])c3cnc(Nc4ccc5c(n4)c(-c4cnn(C(F)(F)F)c4)cn5C4([2H])CCOCC4)cc32)C1 (stereo partly drawn) [Example 112, Methyl ((3R)-3-(3-(methyl-d3)-2-oxo-6-((1-(tetrahydro-2H-pyran-4-yl-4-d)-3-(1-(trifluoromethyl)-1H-pyrazol-4-yl)-1H-pyrrolo[3,2-b]pyridin-5-yl)amino)-2,3-dihydro-1H-imidazo[4,5-c]pyridin-1-yl)cyclopentyl-1-d)carbamate]",> 1000 nM,≤ 10 nM
"[2H]C1(NC(=O)OC)CC[C@@H](n2c(=O)n(C([2H])([2H])[2H])c3cnc(Nc4ccc5c(n4)c(-c4cnn(C(F)(F)F)c4)nn5CC(C)(C)O)cc32)C1 (single isomer, unassigned) [Example 124]",> 1000 nM,≤ 10 nM
"[2H]C([2H])([2H])n1c(=O)n(C23CCC(NC(C)=O)(CC2)C3)c2cc(Nc3cc(C(C)(C)O)cc(-c4ncc(C(F)(F)F)s4)n3)ncc21 [Example 142, N-(4-(6-((4-(2-Hydroxypropan-2-yl)-6-(5-(trifluoromethyl)thiazol-2-yl)pyridin-2-yl)amino)-3-(methyl-d3)-2-oxo-2,3-dihydro-1H-imidazo[4,5-c]pyridin-1-yl)bicyclo[2.2.1]heptan-1-yl)acetamide]",> 1000 nM,≤ 10 nM
"[2H]C([2H])([2H])n1c(=O)n([C@@H]2CC[C@@H](NC(=O)OC)C2)c2cc(Nc3ccc4c(n3)c(-c3cnn(C(F)(F)F)c3)cn4CC(C)(C)O)ncc21 [Example 110, Methyl ((1R,3R)-3-(6-((1-(2-hydroxy-2-methylpropyl)-3-(1-(trifluoromethyl)-1H-pyrazol-4-yl)-1H-pyrrolo[3,2-b]pyridin-5-yl)amino)-3-(methyl-d3)-2-oxo-2,3-dihydro-1H-imidazo[4,5-c]pyridin-1-yl)cyclopentyl)carbamate]",> 1000 nM,≤ 10 nM
"[2H]C1(NC(=O)OC)CC[C@@H](n2c(=O)n(C([2H])([2H])[2H])c3cnc(Nc4cc(C(C)(C)O)c5[nH]cc(-c6cnn(C(F)(F)F)c6)c5n4)cc32)C1 (stereo partly drawn) [Example 130, Methyl ((3R)-3-(6-((7-(2-hydroxypropan-2-yl)-3-(1-(trifluoromethyl)-1H-pyrazol-4-yl)-1H-pyrrolo[3,2-b]pyridin-5-yl)amino)-3-(methyl-d3)-2-oxo-2,3-dihydro-1H-imidazo[4,5-c]pyridin-1-yl)cyclopentyl-1-d)carbamate]",> 1000 nM,≤ 10 nM
"[2H]C1(NC(=O)OC)CC[C@@H](n2c(=O)n(C([2H])([2H])[2H])c3cnc(Nc4ccc5c(n4)c(-c4cnn(C(F)(F)F)c4)nn5CC4(C#N)CC4)cc32)C1 (stereo partly drawn) [Example 133, Methyl ((3R)-3-(6-((1-((1-cyanocyclopropyl)methyl)-3-(1-(trifluoromethyl)-1H-pyrazol-4-yl)-1H-pyrazolo[4,3-b]pyridin-5-yl)amino)-3-(methyl-d3)-2-oxo-2,3-dihydro-1H-imidazo[4,5-c]pyridin-1-yl)cyclopentyl-1-d)carbamate]",> 1000 nM,≤ 10 nM
"[2H]C([2H])([2H])n1c(=O)n([C@@H]2CC[C@@]([2H])(NC(=O)OC)C2)c2cc(Nc3cc(C(C)(C)O)cc(-c4ncc(C(O)(C(F)(F)F)C(F)(F)F)s4)n3)ncc21 [Example 147, Methyl ((1R,3R)-3-(6-((6-(5-(1,1,1,3,3,3-hexafluoro-2-hydroxypropan-2-yl)thiazol-2-yl)-4-(2-hydroxypropan-2-yl)pyridin-2-yl)amino)-3-(methyl-d3)-2-oxo-2,3-dihydro-1H-imidazo[4,5-c]pyridin-1-yl)cyclopentyl-1-d)carbamate]",> 1000 nM,≤ 10 nM
"[2H]C([2H])([2H])n1c(=O)n(C23CCC(C(=O)NC4CC4)(CC2)CC3)c2cc(Nc3cc(C(C)(C)O)cc(-c4ncc(C(F)(F)F)s4)n3)ncc21 [Example 138, N-Cyclopropyl-4-(6-((4-(2-hydroxypropan-2-yl)-6-(5-(trifluoromethyl)thiazol-2-yl)pyridin-2-yl)amino)-3-(methyl-d3)-2-oxo-2,3-dihydro-1H-imidazo[4,5-c]pyridin-1-yl)bicyclo[2.2.2]octane-1-carboxamide]",> 1000 nM,≤ 10 nM
